In US20120022048A1, “Anti-proliferative substituted pyrazolo[3,4-d]pyrimidines derivatives (SPP) to inhibit immune activation, virus replication and tumor growth” (priority 2010, published 2012):

What was measured:
Assay type in all cases: cell-based
[1] = tested on: HIV-1 NL 4.3; assay: HIV-1 replication in activated T cells (PBMC, p24 Ag ELISA); conditions: for anti-HIV activity in activated T cells (in words): SPPs 10 μM, compared with HU 100 μM, HU+ddI or untreated control; for HIV activated cells (% p24 compared to not treated control): activated T cells, 7 days, SPPs and Imatinib 10 μM, HU 100 μM, ddI 2 μM; for Antiviral activity in activated cells: class symbol, Table 6
Procedure: The experimental setup described below allows us to detect direct antiviral activity of a compound.
Human PBMC, obtained from healthy, normal donors, were stimulated for two days with PHA 5 μg/ml. Then cells were infected with HIV-1 NL 4.3, IL-2 was added (20 U/ml), cells were plated (10^5 cells per well in 200 μl) and drug treatment started. […] The control was left untreated. After 7 days of incubation at 37° C. supernatants were harvested and HIV-1 p24 Ag was measured by ELISA.

[2] = tested on: primary human CD4 T-lymphocytes; assay: Apoptosis in primary CD4 T cells (Annexin V and 7-AAD staining); conditions: SPPs 10 μM; for apoptotic effect (in words): compared with HU 100 μM, HU+ddI or untreated control; for apoptosis %: total apoptotic events compared to untreated control, day 10, Imatinib 10 μM, HU 100 μM, ddI 2 μM
Procedure: (§1) Unstimulated (quiescent/resting, day 0 to 5) primary human CD4 T-lymphocytes were obtained by magnetic bead separation from healthy, normal donors. After five days in culture, cells were activated with PHA (5 μg/ml) to induce hyperproliferation then, at day 7, IL-2 (20 U/ml) was added (stimulated, day 6 to 10). All available compounds were tested at a concentration of 10 μM. […] At day 10, cells were harvested. Proliferation of T cells, cultured as described above, was studied by staining the cells with carboxyfluorescein diacetate-succinimidyl ester (CFSE) at day 0 (immediately after infection). For data analysis, the mitotic index (M) was used, calculating the sum of mitotic events at each proliferation cycle. To extract a relative number, M was normalized to the total number of cells acquired using the equation M=Σ[(Xn(T)−Xn(T)/2^n)], that gives the number of mitotic events from the experimentally obtained values of the proportion of T cells under each division peak n (Xn) and the total T cells (T). To study the effect of the compounds on apoptosis T cells were cultured as described above and at day 10 cells were stained with Annexin V and 7-AAD, in order to determine the percentage of total apoptotic events.
We determined the capacity of the compounds to affect the percentages of apoptotic events after 10 days of treatment in primary CD4 T cells.

[3] = tested on: primary human CD4 T-lymphocytes; assay: Cell hyperproliferation in primary T cells (CFSE staining, mitotic index); conditions: for mitotic index %: % of not treated control (100%), day 10, HU 100 μM; for mitotic index % / anti-proliferative activity (in words): SPPs 10 μM, Imatinib 10 μM; for anti-proliferative activity (in words): compared with HU 100 μM, HU+ddI or untreated control; for Anti-proliferative capacity: class symbol, Table 6
Procedure: We built up an experimental model using primary T cells to study the activity of the compounds on induced hyperproliferation of cells, which is a characteristic of both chronic viral diseases and cancer including HIV and leukemia.
as §1

[4] = tested on: HIV-1 NL 4.3; assay: HIV-1 replication in quiescent CD4 T cells (p24 Ag ELISA); conditions: for anti-HIV activity in quiescent cells (in words) / HIV quiescent cells (percentage p24 compared to the untreated control): SPPs 10 μM; for anti-HIV activity in quiescent cells (in words): compared with HU 100 μM, HU+ddI or untreated control; for Antiviral activity in quiescent cells: class symbol, Table 6; for HIV quiescent cells (percentage p24 compared to the untreated control): quiescent CD4 T cells, day 10, HU 100 μM, HU 100 μM+ddI 2 μM
Procedure: Unstimulated (quiescent/resting, day 0 to 5) human CD4 T-lymphocytes, obtained by magnetic bead separation from healthy, normal donors, were infected with HIV-1 NL 4.3. After five days in culture, cells were stimulated with PHA (5 μg/ml) to induce proliferation, and then, at day 7, IL-2 (20 U/ml) was added (stimulated, day 6 to 10). All available compounds were tested at a concentration of 10 μM. HU 100 μM and HU 100 μM+ddI 2 μM were also employed as comparators and the negative control was left untreated. At day 10, cells and supernatants were harvested and HIV-1 p24 Ag was measured by ELISA. HIV replication was expressed as percentage p24 compared to the untreated control.

Structure (SMILES): CCCCNc1ncnc2c1cnn2CC(Cl)c1ccccc1 (stereo not drawn) [VS1-008]
- anti-HIV activity in activated T cells (in words) [1]: good activity
- HIV activated cells (% p24 compared to not treated control) [1]: 11.8 ± 5.6%
- Antiviral activity in activated cells [1]: +++ (excellent (+++, greater than 70% activity))
- apoptotic effect (in words) [2]: did not induce apoptosis
- apoptosis % [2]: 115.8 ± 39.4%
- mitotic index % [3]: 8.1 ± 1.8%
- anti-proliferative activity (in words) [3]: good activity against proliferation (even better than HU though 10 times less concentrated)
- Anti-proliferative capacity [3]: +++ (excellent (+++, greater than 70% activity))
- anti-HIV activity in quiescent cells (in words) [4]: good activity
- Antiviral activity in quiescent cells [4]: +++ (excellent (+++, greater than 70% activity))
- HIV quiescent cells (percentage p24 compared to the untreated control) [4]: 11.2 ± 7.7%

Structure (SMILES): CCSc1nc(Nc2cccc(Cl)c2)c2cnn(CC(Cl)c3ccccc3)c2n1 (stereo not drawn) [VS1-027]
- anti-HIV activity in activated T cells (in words) [1]: good anti-HIV activity
- HIV activated cells (% p24 compared to not treated control) [1]: 12.0 ± 9.5%
- Antiviral activity in activated cells [1]: +++ (excellent (+++, greater than 70% activity))
- apoptotic effect (in words) [2]: no more apoptotic than HU
- apoptosis % [2]: 90.1 ± 33.8%
- mitotic index % [3]: 2.4 ± 1.5%
- anti-proliferative activity (in words) [3]: good anti-proliferative capacity (superior to 100 μM HU)
- Anti-proliferative capacity [3]: +++ (excellent (+++, greater than 70% activity))
- anti-HIV activity in quiescent cells (in words) [4]: good anti-HIV activity
- Antiviral activity in quiescent cells [4]: +++ (excellent (+++, greater than 70% activity))
- HIV quiescent cells (percentage p24 compared to the untreated control) [4]: 2.7 ± 1.6%

Structure (SMILES): CSc1nc(NCc2ccc(Cl)cc2)c2cnn(CC(Cl)c3ccccc3)c2n1 (stereo not drawn) [VS1-035]
- HIV activated cells (% p24 compared to not treated control) [1]: 49.5 ± 8.1%
- apoptotic effect (in words) [2]: proapoptotic activity
- apoptosis % [2]: 161.0 ± 13.2%
- mitotic index % [3]: 33.8 ± 11.0%
- anti-proliferative activity (in words) [3]: good anti-proliferative activity, similar to HU
- HIV quiescent cells (percentage p24 compared to the untreated control) [4]: 24.0 ± 20.0%

Structure (SMILES): CCSc1nc(NCc2ccccc2)c2cnn(CC(Cl)c3ccccc3)c2n1 (stereo not drawn) [VS1-020]
- anti-HIV activity in activated T cells (in words) [1]: effective against HIV
- HIV activated cells (% p24 compared to not treated control) [1]: 26.3 ± 6.1%
- apoptotic effect (in words) [2]: proapoptotic
- apoptosis % [2]: 174.7 ± 25.9%
- mitotic index % [3]: 21.9 ± 13.0%
- anti-proliferative activity (in words) [3]: as anti-proliferative or even better than HU
- anti-HIV activity in quiescent cells (in words) [4]: effective against HIV
- HIV quiescent cells (percentage p24 compared to the untreated control) [4]: 9.2 ± 3.7%

Structure (SMILES): C(=Cn1ncc2c(N3CCOCC3)ncnc21)c1ccccc1 [VS1-009]
- anti-HIV activity in activated T cells (in words) [1]: very little activity
- HIV activated cells (% p24 compared to not treated control) [1]: 44.8 ± 14.9%
- apoptosis % [2]: 114.2 ± 21.3%
- mitotic index % [3]: 88.4 ± 19.8%
- anti-proliferative activity (in words) [3]: very little activity
- HIV quiescent cells (percentage p24 compared to the untreated control) [4]: 71.8 ± 42.9%

Structure (SMILES): CCCNc1nc(N(C)C)nc2c1cnn2CC(Cl)c1ccccc1 (stereo not drawn) [VS1-023]
- HIV activated cells (% p24 compared to not treated control) [1]: 36.6 ± 15.1%
- apoptotic effect (in words) [2]: not proapoptotic
- apoptosis % [2]: 116.0 ± 14.7%
- mitotic index % [3]: 33.2 ± 6.5%
- HIV quiescent cells (percentage p24 compared to the untreated control) [4]: 8.7 ± 5.6%

Structure (SMILES): C(=Cn1ncc2c(NCCc3ccccc3)ncnc21)c1ccccc1 [VS1-014]
- HIV activated cells (% p24 compared to not treated control) [1]: 92.4 ± 24.3%
- apoptosis % [2]: 135.2 ± 19.3%
- mitotic index % [3]: 76.9 ± 2.7%
- HIV quiescent cells (percentage p24 compared to the untreated control) [4]: 74.3 ± 22.8%
